This is an account of results in US20240148780A1, “COMPOSITION AND USE OF AN OPHTHALMIC SOLUTION BASED ON HYALURONIC ACID AND ARABINOGALACTAN” (MD ITALY SRL, priority 2019, published 2024).

Series [1] deals with isolated hepatocytes and microsomal fractions from rat liver. Conditions: compared with an equivalent amount of directly-added free alpha-tocopherol; cited from earlier work.
The nature of series [2]: Viscosity as a function of shear rate, plate viscometer. The series is classed as physicochemical. On the procedure:
Given the results obtained, the characterization was further extended to determine the viscosity as a function of the shear rate, always using a Plate Viscometer, in particular the following solutions were measured. • Sample 1: Hyaluronic acid • Sample 2: Hyaluronic acid+Arabinogalactan • Sample 3: Eye drops A • Sample 4: Arabinogalactan
The description of the graph can be further exemplified by the following table which reports the viscosity values (mPa·s$) at 10[1/s] at a fixed point corresponding to A.

Series [3] addresses T1, xanthine oxidase (Homo sapiens, UniProt P47989). Briefly: Superoxide anion production by xanthine oxidase, detected by ferrocytochrome C reduction. The series is classed as biochemical. The conditions noted are these: xanthine oxidase reaction. An excerpt:
Any inhibition is particularly important because the superoxide anion production is at the origin, at least in part, of the inflammatory phenomena of the ocular surface. The superoxide anion produced by xanthine oxidase in the oxidation reaction of xanthine was detected by the reduction of […] to […] by the same superoxide anion (O2^−·) (Fridovich). The reaction is reported here for clarity:
Fe^3+Cit.C+Superoxide Anion-----→Fe^2+Cit.C
The effect of arabinogalactan, hyaluronic acid, and the association thereof on superoxide anion production over time (0, 1, 5, 10, 15, 30 min) was investigated. The production of superoxide anion was determined by the reduction of ferrocytochrome C (3+) to ferrocytochrome C (2+), monitoring absorption at 551 nm using a DR6000 UV spectrophotometer (Hach, Lange). The tests for the determination of superoxide anion production were carried out still using the xanthine oxidase reaction used previously.
Produced by the superoxide anion, the ferrocytochrome C was calculated considering a molar absorption equal to 2.1×10^4 M^−1·cm^−1 (Ref. 16-17). The superoxide inhibition evaluation reported above was performed for arabinogalactan, hyaluronic acid, and the association thereof. Furthermore, the eye drops formulation of the present invention was also evaluated, also comprising panthenol, vitamin E-TGPS and trehalose.

In series [4] the target is T1, xanthine oxidase. Briefly: Xanthine oxidase (XOD) reaction inhibition: formation of uric acid. The series is classed as biochemical. On the procedure:
The effect of arabinogalactan, hyaluronic acid and the association thereof was investigated by monitoring the formation of uric acid over time (0, 1, 5, 10, 15, 30 min). Uric acid concentration was determined at 291 nm using a DR6000 UV spectrophotometer (Hach, Lange). The absorbance value is related to the concentration by means of the Lambert-Beer law:
where A is the absorbance of uric acid at 291 nm, ε is the molar absorption coefficient, b is the optical path (thickness of the cuvette in which the solution is contained) and C is the uric acid concentration.
The blank/control consists of: 50 μM xanthine, 10 mg L^−1 of xanthine oxidase (XO) (0.00016 μUI of enzyme) in borate buffer solution (see table 3) 7.2≤pH≤7.8). The effect of the components of the eye drops was investigated by adding the individual components to the blank solution: respectively • (i) 0.4% (w/w) of arabinogalactan (AG) • (ii) 0.15% (w/w) of hyaluronic acid (HA) • (iii) association of 0.4% (w/w) of AG+0.15% (w/w) of HA (mix AG+HA). • (iii) Eye drops corresponding to the formulation of Tab.3.
All the tests were conducted at least in triplicate.
The uric acid formation reductions were calculated as: […]
where C30-(i) is the final concentration (30 min) of uric acid in the i-th test and C30-control is the uric acid concentration at 30 min in the blank (control).
Furthermore, the inhibition evaluation reported above was also carried out in borate buffer for arabinogalactan, for hyaluronic acid and for the association thereof, and finally for the eye drops formulation of the present invention, also comprising panthenol, vitamin E-TGPS and trehalose.

The nature of series [5]: Rheology, plate viscometer in oscillation mode (G″, G′). The series is classed as physicochemical. Conditions: HA 0.15% w/w, AG 0.4% w/w. The protocol: In addition to the evaluation of the effect of arabinogalactan, hyaluronic acid and the association thereof on xanthine oxidase activity and in order to characterize the possible interaction thereof, to justify the inhibitory effect thereof, rheology measurements were carried out with the hypothesis that the two macrostructures, arabinogalactan on the one hand and hyaluronic acid on the other, could modify the rheological trend of the formulation of the present invention.
With reference to FIG. 3, the characterization of the following solutions was carried out using an AM Instruments Plate Viscometer, in Oscillation Mode. The following solutions were measured: • Sample 1: Hyaluronic acid solution at 0.15% w/w • Sample 2: Arabinogalactan solution 0.4% +Hyaluronic acid 0.15% w/v • Sample 3: Arabinogalactan solution 0.4% w/w.
1: Hyaluronic acid 0.15% w/w • Solution no. 2: Arabinogalactan 0.4%+hyaluronic acid 0.15% w/w • Solution no. 3: Arabinogalactan 0.4% w/w • Interpretation of the Results: […]

T1 sequence (P47989 whole entry, species assumed): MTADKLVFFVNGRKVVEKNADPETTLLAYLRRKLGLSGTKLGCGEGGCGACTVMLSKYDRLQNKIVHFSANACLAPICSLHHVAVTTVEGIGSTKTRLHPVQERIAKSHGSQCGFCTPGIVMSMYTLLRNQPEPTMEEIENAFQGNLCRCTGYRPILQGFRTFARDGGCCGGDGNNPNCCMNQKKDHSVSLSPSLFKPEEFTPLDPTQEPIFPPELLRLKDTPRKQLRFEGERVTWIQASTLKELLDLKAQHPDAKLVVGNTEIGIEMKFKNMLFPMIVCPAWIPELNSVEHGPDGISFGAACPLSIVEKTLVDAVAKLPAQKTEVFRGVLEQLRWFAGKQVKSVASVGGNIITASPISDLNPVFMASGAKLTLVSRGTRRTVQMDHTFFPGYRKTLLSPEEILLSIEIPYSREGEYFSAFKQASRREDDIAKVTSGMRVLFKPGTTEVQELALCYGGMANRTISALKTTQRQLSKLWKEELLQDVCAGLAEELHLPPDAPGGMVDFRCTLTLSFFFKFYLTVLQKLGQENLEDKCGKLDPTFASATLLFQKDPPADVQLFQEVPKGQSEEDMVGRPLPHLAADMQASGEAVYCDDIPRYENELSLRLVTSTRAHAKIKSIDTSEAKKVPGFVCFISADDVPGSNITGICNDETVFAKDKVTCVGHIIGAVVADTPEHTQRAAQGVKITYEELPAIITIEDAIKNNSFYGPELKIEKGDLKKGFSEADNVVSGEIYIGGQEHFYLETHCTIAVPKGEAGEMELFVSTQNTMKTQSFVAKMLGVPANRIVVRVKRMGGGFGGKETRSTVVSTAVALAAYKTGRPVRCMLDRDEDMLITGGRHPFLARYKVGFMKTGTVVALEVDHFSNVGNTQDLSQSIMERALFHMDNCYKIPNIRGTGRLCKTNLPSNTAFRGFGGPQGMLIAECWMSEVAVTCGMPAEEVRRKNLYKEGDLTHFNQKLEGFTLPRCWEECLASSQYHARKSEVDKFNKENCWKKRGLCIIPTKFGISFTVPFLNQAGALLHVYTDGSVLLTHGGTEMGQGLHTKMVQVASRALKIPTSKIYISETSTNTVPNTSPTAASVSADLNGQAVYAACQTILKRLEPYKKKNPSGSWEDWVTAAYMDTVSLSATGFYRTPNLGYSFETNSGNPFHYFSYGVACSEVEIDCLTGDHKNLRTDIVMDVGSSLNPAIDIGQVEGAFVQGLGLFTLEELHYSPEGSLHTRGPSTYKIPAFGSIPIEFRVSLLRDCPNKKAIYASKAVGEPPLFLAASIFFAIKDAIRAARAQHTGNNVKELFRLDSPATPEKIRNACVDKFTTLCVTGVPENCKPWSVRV

For the compound `Cc1c(C)c2c(c(C)c1OC(=O)CCC(=O)O)CC[C@@](C)(CCC[C@H](C)CCC[C@H](C)CCCC(C)C)O2` [TS, alpha-tocopherol succinate, reference compound], the Antioxidant protection result in series [1] is given as “more effective antioxidant protection than an equivalent amount of directly-added free alpha-tocopherol”.
On to Hyaluronic acid, for which the “Viscosity trend as a function of shear rate” value in series [2] (FIG. 4) is “linear trend (Newtonian) higher viscosity”. In series [2] (at 10 [1/s], fixed point), this compound returned a Viscosity of 1.50 mPa·s. Also, the “Fe+2 Cit.C μM produced per minute” value at xanthine oxidase [3] (per minute) stood at 0.42 µM. Besides, at xanthine oxidase [3] (551 nm, 30 min), the “Fe+2 Cit.C μM produced in 30 minutes” value turned out to be 12.6 µM. Further, the “Inhibition % of Fe+2 Cit.C production (superoxide anion)” value at xanthine oxidase [3] (551 nm, 30 min vs control) is 17.2%. For the same compound, the “Uric acid μM produced in 30 minutes” value on xanthine oxidase [4] (50 μM xanthine, 10 mg L−1 xanthine oxidase, borate buffer, AG 0.4% w/w, HA 0.15% w/w, 30 min) is 15.3 µM. For the same compound, at xanthine oxidase [4] (50 μM xanthine, 10 mg L−1 xanthine oxidase, borate buffer, AG 0.4% w/w, HA 0.15% w/w, 30 min vs blank), the “Inhibition % of uric acid production” value was found to be 0%. Further, the “Uric acid μM produced per minute” value at xanthine oxidase [4] (per minute, same reaction, linear kinetics assumed) was 0.51 µM. Also, the “Trend of G″ (Loss Modulus Viscosity)” value in series [5] was “always with a value higher than the other measured solutions”.
In the case of “alpha-tocopherol polyethylene glycol 1000 succinate [TPGS]”, the Antioxidant protection entry in series [1] was “more effective antioxidant protection than an equivalent amount of directly-added free alpha-tocopherol”.
